{"source": "patent US7422854B1", "about": "“Cholesterol reduction signature” (priority 2002, dated 2008)", "key": {"[1]": {"tested_on": "livers of rats", "experiment": "Signature Projection Score (SPS): match of liver gene expression to the Cholesterol Reduction Signature", "type": "in vivo", "conditions": "rat liver, maximum of training treatments = 100", "protocol": "(§1) After determination of the MTD and FED for a compound, each compound was dissolved in a vehicle for administration on day 1 of the study (additional daily doses were stored as frozen aliquots from this initial formulation). Each compound was administered to three individual male Sprague-Dawley rats for each of the two doses (MTD and FED) for one of four different times (0.25 day, 1 day, 3 days, and 5 days), yielding a total of up to 24 animals per compound study. Vehicle choice was based on solubility of the compound, effect of food on adsorption, and the vehicles used in the literature reports examined during the FED selection investigations, described above. Generally, the route and vehicle in which the FED was defined are used. When there was a choice of routes and vehicles, oral routes were chosen over injection routes. Many compounds, especially oncolytics, are only administerable intravenously. In such cases, the compound was administered as an intravenous formulation into the tail vein. Orally administered compounds were given dissolved in either water, 1% carboxymethycellulose (CMC) or corn oil. Intravenously and intraperitoneally administered compounds were given in 0.9% saline. Subcutaneously administered compounds were given in corn oil. Animal body weights were determined at 1 day and, where appropriate, at 4 days, before necropsy, and clinical observations were made on a daily basis. Control animals were dosed with vehicle only. Three male animals were used for each dose and time combination used for the compound treatment.\n(§2) Tissue harvest and handling: After the allocated treatment time, the tissues from the animals were harvested. […] All the tissues collected were divided to provide samples for histopathological analyses, and the remainder of each tissue was then snap-frozen. […] The following blood constituents were measured: Blood Urea Nitrogen (BUN), Creatinine (CRE), Glucose (GLU), Alanine Transaminase (ALT), Aspartate Aminotrans-ferase (AST), Alkaline Phosphatase (ALP), Total Bilirubin (TBI), Sodium (SOD), Potassium (POT), Chloride (CHL), Phosphorus (PHO), Total Protein (TPR), Albumin (ALB), Cholesterol (CHO), Creatine Phosphokinase (CPK), Lactate Dehydrogenase (LDH), Carbon Dioxide (CO2), Uric Acid (UA), and Lipase. […] The parameters were measured using a Baker 9000 blood cell analysis instrument according to the manufactures instructions. The following blood constituents were measured: Leukocyte count (WBC), Differential Leukocyte counts, Erythrocyte count (RBC), Hemoglobin concentration (HGB), Hematocrit (HCT), Mean Corpuscular Volume (MCV), Mean Corpuscular Hemoglobin (MCH), Mean Corpuscular Hemoglobin Concentration (MCC), Thrombocyte Count (PLC). Histopathology: Histopathological analyses of hematoxylin and eosin-stained tissue sections were performed and peer-reviewed by board-certified (Diplomate, American College of Veterinary Pathologists) veterinary pathologists. Preparation of Enriched mRNA: Punch Biopsies were Taken from the Frozen Tissues and were completely homogenized before being processed using the MagNA Pure robot. (Roche Diagnostics Corp., Indianapolis, Ind.) in combination with the MagNA Pure LC RNA Isolation kit II (Roche Diagnostics Corp). The amount of lysis buffer was adjusted to allow 1 ml per 50 mg for liver tissue, or 1 ml per 80 mg for all other tissues. After complete homogenization and before loading of the samples into the 32-well MagNA Pure plate, the samples were syringed 5-6 times using a 20-gauge 3-ml syringe to ensure a smooth solution for robotic processing. Tissue sample processing was performed in duplicate wells (loading 150 μl of homogenized sample and 150 μl of additional lysis buffere to each well) of the MagNA Pure LC, which is programmed to extract mRNA using oligo-dT selection technology into a final elution volume of 100 μl. Poly A(+) RNA sample concentration was performed using a standard ethanol precipitation protocol in the presence of glycogen (50 μg/ml)."}, "[2]": {"tested_on": "male Sprague-Dawley rats", "experiment": "Cholesterol Lowering Index: total blood cholesterol (clinical chemistry) in treated versus vehicle-treated rats", "type": "in vivo, rat", "conditions": "for Cholesterol Index (fold reduction): Table 4; for Cholesterol Index (fold reduction) / Chol index (fold reduction): male rats; for Chol index (fold reduction): vs vehicle; for reduction in cholesterol: extremes of the twenty treatments of table 1, treated versus untreated rats", "excerpt": "Compound dosing was based on the acute dose LD50s recorded in published reference or literature sources. […] The MTD (maximum tolerated dose) was then selected as the dose at which the animals […] 5-10% body weight during the 5-day range finding study. […] In addition, the clinical observations must show no or mild clinical signs during the whole of the range-finding study. At the next highest dose, signs and symptoms of adverse effects and exceeding those of the MTD should be seen to occur. Should these criteria not be met, the range-finding study is repeated using a modified dose range.\nas §1\nas §2, with “Corp).” for “Corp). The amount of lysis buffer was adjusted to allow 1 ml per 50 mg for liver tissue, or 1 ml per 80 mg for all other tissues. After complete homogenization and before loading of the samples into the 32-well MagNA Pure plate, the samples were syringed 5-6 times using a 20-gauge 3-ml syringe to ensure a smooth solution for robotic processing. Tissue sample processing was performed in duplicate wells (loading 150 μl of homogenized sample and 150 μl of additional lysis buffere to each well) of the MagNA Pure LC, which is programmed to extract mRNA using oligo-dT selection technology into a final elution volume of 100 μl. Poly A(+) RNA sample concentration was performed using a standard ethanol precipitation protocol in the presence of glycogen (50 μg/ml).”"}, "[3]": {"tested_on": "rat", "conditions": "ovarectomized female rats; cited from earlier work"}}, "data": [{"smiles": "C[C@]12CC[C@@H]3c4ccc(O)cc4CC[C@H]3[C@@H]1CC[C@@H]2O", "note": "[BETA-ESTRADIOL, (17β)-estra-1,3,5(10)-triene-3,17-diol]", "values": [{"measurement": "SPS", "setting": "[1]; dose 150 (mg/ml), time point 1 day", "result": 53}, {"measurement": "SPS", "setting": "[1]; dose 150 (mg/ml), time point 3 days", "result": 63.4}, {"measurement": "SPS", "setting": "[1]; dose 150 (mg/ml), time point 5 days", "result": 63.7}, {"measurement": "Cholesterol Index (fold reduction)", "setting": "[2]; dose 150, time point 3 days", "result": 3.1, "unit": "fold reduction"}, {"measurement": "Cholesterol Index (fold reduction)", "setting": "[2]; dose 150, time point 5 days", "result": 4.7, "unit": "fold reduction"}, {"measurement": "Chol index (fold reduction)", "setting": "[2]; dose 150, time 3 days", "result": 3.21, "unit": "fold reduction"}, {"measurement": "Chol index (fold reduction)", "setting": "[2]; dose 150, time 5 days", "result": 4.94, "unit": "fold reduction"}]}, {"smiles": "O=C(c1ccc(OCCN2CCCCC2)cc1)c1c(-c2ccc(O)cc2)sc2cc(O)ccc12", "note": "[RALOXIFENE, [6-hydroxy-2-(4-hydroxyphenyl)-3-(4-[2-piperidin-1-yl)ethoxy]benzoyl)-benzo[b]thiene]", "values": [{"measurement": "effect on cholesterol", "setting": "[3]", "result": "lower cholesterol"}, {"measurement": "Chol index (fold reduction)", "setting": "[2]; dose 6.5, time 5 days", "result": 2.61, "unit": "fold reduction"}]}, {"smiles": "CCOC(=O)C(C)(C)Oc1ccc(Cl)cc1", "note": "[CLOFIBRATE, 2-(4-chlorophenoxy)-2-methylpropanoic acid ethyl ester]", "values": [{"measurement": "Chol index (fold reduction)", "setting": "[2]; dose 500, time 3 days", "result": 2.43, "unit": "fold reduction"}]}, {"smiles": "C[C@@H]1C[C@H]2[C@@H]3CCC4=CC(=O)C=C[C@]4(C)[C@@]3(F)[C@@H](O)C[C@]2(C)[C@@]1(O)C(=O)CO", "note": "[DEXAMETHASONE]", "values": [{"measurement": "SPS", "setting": "[1]; dose 1 (mg/ml), time point 3 days", "result": 49.5}, {"measurement": "Cholesterol Index (fold reduction)", "setting": "[2]; dose 1, time point 3 days", "result": 0.9, "unit": "fold reduction"}]}, {"smiles": "CC/C(=C(/CC)c1ccc(O)cc1)c1ccc(O)cc1", "note": "[DIETHYLSTILBESTROL, 3,4-bis-(4-hydroxyphenyl)-3-hexene]", "values": [{"measurement": "SPS", "setting": "[1]; dose 2.8 (mg/ml), time point 1 day", "result": 57.3}, {"measurement": "SPS", "setting": "[1]; dose 2.8 (mg/ml), time point 3 days", "result": 71.2}, {"measurement": "SPS", "setting": "[1]; dose 2.8 (mg/ml), time point 5 days", "result": 80.9}, {"measurement": "SPS", "setting": "[1]; dose 300 (mg/ml), time point 1 day", "result": 59}, {"measurement": "SPS", "setting": "[1]; dose 300 (mg/ml), time point 3 days", "result": 83.3}, {"measurement": "SPS", "setting": "[1]; dose 300 (mg/ml), time point 5 days", "result": 91.1}, {"measurement": "Cholesterol Index (fold reduction)", "setting": "[2]; dose 2.8, time point 3 days", "result": 3.0, "unit": "fold reduction"}, {"measurement": "Cholesterol Index (fold reduction)", "setting": "[2]; dose 2.8, time point 5 days", "result": 3.4, "unit": "fold reduction"}, {"measurement": "Chol index (fold reduction)", "setting": "[2]; dose 2.8, time 3 days", "result": 3.10, "unit": "fold reduction"}, {"measurement": "Chol index (fold reduction)", "setting": "[2]; dose 2.8, time 5 days", "result": 3.56, "unit": "fold reduction"}]}, {"smiles": "C[C@]12CC[C@@H]3c4ccc(OC(=O)c5ccccc5)cc4CC[C@H]3[C@@H]1CC[C@@H]2O", "note": "[BETA-ESTRADIOL 3-BENZOATE]", "values": [{"measurement": "SPS", "setting": "[1]; dose 2 (mg/ml), time point 3 days", "result": 46.4}, {"measurement": "Cholesterol Index (fold reduction)", "setting": "[2]; dose 2, time point 3 days", "result": 2.0, "unit": "fold reduction"}]}, {"smiles": "C#C[C@]1(OC(C)=O)CC[C@H]2[C@@H]3CCC4=CC(=O)CC[C@@H]4[C@H]3CC[C@@]21C", "note": "[NORETHINDRONE ACETATE]", "values": [{"measurement": "SPS", "setting": "[1]; dose 125 (mg/ml), time point 1 day", "result": 58.8}, {"measurement": "SPS", "setting": "[1]; dose 125 (mg/ml), time point 3 days", "result": 81.6}, {"measurement": "SPS", "setting": "[1]; dose 125 (mg/ml), time point 5 days", "result": 80.7}, {"measurement": "Cholesterol Index (fold reduction)", "setting": "[2]; dose 125, time point 3 days", "result": 2.0, "unit": "fold reduction"}, {"measurement": "Cholesterol Index (fold reduction)", "setting": "[2]; dose 125, time point 5 days", "result": 4.0, "unit": "fold reduction"}, {"measurement": "Chol index (fold reduction)", "setting": "[2]; dose 125, time 5 days", "result": 4.07, "unit": "fold reduction"}]}, {"smiles": "CC[C@H](C)C(=O)O[C@H]1C[C@@H](C)C=C2C=C[C@H](C)[C@H](CC[C@@H]3C[C@@H](O)CC(=O)O3)[C@H]21", "note": "(relative stereo) [LOVASTATIN, (1S-(1α(R*),3α,7β,8β(2S*,4S*)-8αβ)-2-methylbutanoic acid 1,2,3,7,8,8a-hexahydro-3,7-dimethyl-8-(2-(tetrahydro-4-hydroxy-6-oxo-2H-pyran-2-yl)ethyl)-1-naphthalenyl ester]", "values": [{"measurement": "Chol index (fold reduction)", "setting": "[2]; dose 450, time 5 days", "result": 2.39, "unit": "fold reduction"}, {"measurement": "reduction in cholesterol", "setting": "[2]", "result": 2, "unit": "fold"}]}, {"smiles": "OC(Cn1cncn1)(Cn1cncn1)c1ccc(F)cc1F", "note": "[FLUCONAZOLE, α-(2,4-difluorophenyl)-α-(1H-1,2,4-triazol-1-ylmethyl)-1H-1,2,4-triazole-1-ethanol]", "values": [{"measurement": "SPS", "setting": "[1]; dose 394 (mg/ml), time point 5 days", "result": 59.7}, {"measurement": "Cholesterol Index (fold reduction)", "setting": "[2]; dose 394, time point 5 days", "result": 3.7, "unit": "fold reduction"}, {"measurement": "Chol index (fold reduction)", "setting": "[2]; dose 394, time 5 days", "result": 3.94, "unit": "fold reduction"}]}, {"smiles": "C#C[C@]1(O)CC[C@H]2[C@@H]3CCC4=CC(=O)CC[C@@H]4[C@H]3CC[C@@]21C", "note": "[NORETHINDRONE, (17α)-17-hydroxy-19-norpregn-4-en-20-yn-3-one]", "values": [{"measurement": "Cholesterol Index (fold reduction)", "setting": "[2]; dose 375, time point 3 days", "result": 3.5, "unit": "fold reduction"}, {"measurement": "Chol index (fold reduction)", "setting": "[2]; dose 375, time 3 days", "result": 3.56, "unit": "fold reduction"}, {"measurement": "Chol index (fold reduction)", "setting": "[2]; dose 375, time 5 days", "result": 3.06, "unit": "fold reduction"}]}, {"smiles": "C[C@]12CC[C@@H]3c4ccc(O)cc4CC[C@H]3[C@@H]1C[C@@H](O)[C@@H]2O", "note": "[ESTRIOL, (16α, 17β)-estra-1,3,5(10)-triene-3,16,17-triol]", "values": [{"measurement": "SPS", "setting": "[1]; dose 313 (mg/ml), time point 1 day", "result": 51.5}, {"measurement": "SPS", "setting": "[1]; dose 313 (mg/ml), time point 3 days", "result": 65.1}, {"measurement": "SPS", "setting": "[1]; dose 313 (mg/ml), time point 5 days", "result": 83.4}, {"measurement": "Cholesterol Index (fold reduction)", "setting": "[2]; dose 313, time point 3 days", "result": 3.2, "unit": "fold reduction"}, {"measurement": "Cholesterol Index (fold reduction)", "setting": "[2]; dose 313, time point 5 days", "result": 20.9, "unit": "fold reduction"}, {"measurement": "Chol index (fold reduction)", "setting": "[2]; dose 313, time 3 days", "result": 3.30, "unit": "fold reduction"}, {"measurement": "Chol index (fold reduction)", "setting": "[2]; dose 313, time 5 days", "result": 20.28, "unit": "fold reduction"}, {"measurement": "reduction in cholesterol", "setting": "[2]", "result": 20, "unit": "fold"}]}]}
